Experimental data reported in patent US20060193781A1, “Magnetic resonance imaging of metal concentrations” (priority 2002, published 2006).
Like-named read-outs stand apart in the source and are kept apart here.

How the values were obtained:
[1] = Fluorine nuclear relaxation times T1 and T2 and chemical shift of 5F-BAPTA with and without zinc, in water and octanol; format: physicochemical
Protocol: All fluorine NMR spectra were collected with a 400 MHz Oxford/Varian Unity Plus spectrometer at 25° C. The nominal 90° pulse width was 7.8 μsec.
An equivalent volume (0.7 ml) n-octanol was added, and the mixture was shaken vigorously. The organic and aqueous phases were separated by pipette and placed in NMR tubes. To the octanol solution was added 0.1 ml deuterated methanol to provide an NMR lock signal.

[2] = for T2 bound / T2 free: 2 mM complexing agent, 400 MHz, 25° C.
Protocol: All fluorine NMR spectra were collected with a 400 MHz Oxford/Varian Unity Plus spectrometer at 25° C. The nominal 90° pulse width was 7.8 μsec. Transverse relaxation times were determined by the best fit of data collected using the Carr-Purcell-Meiboom-Gill sequence supplied with the spectrometer.
A 1 M solution of Ultra Pure ZnCl2 (Sigma) was prepared and diluted in a serial fashion to produce intermediate stock solutions of concentration 100 mM and 10 mM in water. A 200 mM solution of 5-T-BAPTA (Molecular Probes) was prepared and added to aliquots of either zinc solution, as appropriate, in sufficient quantity to yield a final, fixed concentration of 2 mM of the complexing agent.

[3] = aqueous solution of the zinc complex
[4] = aqueous solution without zinc, HEPES buffer, 400 MHz, 25° C.
[5] = Sample 2: ZnCl2 0.5 mM, MgCl2 1.5 mM

Structure (SMILES)	change of fluorine transverse relaxation time upon complexation with Zn^+2 [1]	T1 value [1, 3]	T2 value [1, 3]	T1 value [1, 4]	T2 value [1, 4]	T2 value ([1]; zinc complex in octanol)	T1 value ([1]; zinc complex in octanol solution)	T2 bound ([2]; Sample 1: ZnCl2 2.0 mM, MgCl2 1.0 mM, CaCl2 2.0 mM)	T2 of the complex (Sample 1) relative to T2 of the free complexing agent (Sample 3) ([2]; Sample 1 vs Sample 3)	T2 bound [2, 5]	T2 free [2, 5]	T2 free ([2]; Sample 3: ZnCl2 0 mM, MgCl2 1.65 mM, CaCl2 3.35 mM)	T2 bound ([2]; Sample 4: ZnCl2 3.5 mM, MgCl2 0.5 mM, CaCl2 1.0 mM)
O=C(O)CN(CC(=O)O)c1ccc(F)cc1OCCOc1cc(F)ccc1N(CC(=O)O)CC(=O)O [5F-BAPTA, 1,2-bis-(2-amino-5-fluorophenoxy)ethane-N,N,N′,N′-tetraacetic acid]	large reduction	0.82 ± 0.01 s	0.0248±0.0003	0.82 ± 0.01 s	0.080 ± 0.003 s	0.013 ± 0.001 s	0.53 ± 0.01 s	–	–	–	–	–	–
O=C(O)CN(CC(=O)O)c1ccc(C(F)(F)F)cc1OCCOc1cc(C(F)(F)F)ccc1N(CC(=O)O)CC(=O)O [5T-BAPTA, 1,2-bis-(2-amino-5-trifluoromethylphenoxy)ethane-N,N,N′,N′-tetra acetic acid]	–	–	–	–	–	–	–	0.14 ± 0.03 s	⅕	0.265 ± 0.025 s	0.387 ± 0.012 s	0.763 ± 0.032 s	0.216 ± 0.007 s
